In patent US12427134B2, “Methods of reducing the risk of cardiovascular events in a subject with atrial fibrillation and/or atrial flutter” (priority 2019, dated 2025):

Test system: hypertriglyceridemic patients with cardiovascular disease or at high risk for cardiovascular disease
Experiment: REDUCE-IT: subgroup analyses of the primary and key secondary endpoints
Format: in vivo, human
Conditions: for Primary endpoint, patients with event (%) / Time to primary endpoint, HR (95% CI) AMR101/Placebo: ITT
Description: Exploratory Subgroup Analyses: Analyses of the effects that patients off study drug and withdrawn from study have on the primary endpoint were performed. Subgroup analyses of the primary and key secondary endpoints were performed as described for the primary endpoint. For each subgroup, Kaplan-Meier estimates, the log-rank test stratified by stratification factors used at randomization (except where the subgroup was a stratification factor), and HRs and CIs from the Cox proportional hazards model as specified for the primary efficacy endpoint, were summarized by treatment group. Demographic, disease, treatment, and baseline lipid and lipoproteins parameters were explored.
Demographic parameters included: Gender; age at baseline (<65 years and ≥65 years); race (white and nonwhite, or any other subset with at least 10% of the total number of patients); geographical region (Westernized, Eastern European, and Asia Pacific countries); and baseline ezetimibe use (yes/no).
Disease parameters included: CV risk category; the presence/absence of diabetes at baseline; and renal dysfunction at baseline (estimated glomerular filtration rate [eGFR]<60 mL/min/1.73 m^2) using the Chronic Kidney Disease Epidemiology Collaboration (CKD-EPI) equation as follows: eGFR=141×min(Scr/κ,1)^α×max(Scr/κ,1)^[…]^Age×1.018 [if female]×1.159 [if black]
Treatment Parameters included: Statin intensity at baseline (statin type and regimen); and statin intensity categories as defined in ACC/AHA Cholesterol Guidelines (Stone 2013) and patient's 10-year CV Risk Score (Goff 2013).
Baseline Lipid and Lipoprotein Parameter included: LDL-C (by tertile); HDL-C (by tertile, and tertile by gender); TG (by tertile, and tertile by gender); RLP-C (by tertile); TG ≥150 mg/dL and TG <150 mg/dL; TG ≥200 mg/dL and TG <200 mg/dL; TG ≥median, TG <median; combined highest tertile for TG and lowest tertile for HDL-C; gender-specific highest tertile for TG and lowest tertile for HDL-C; TG ≥200 mg/dL with HDL-C ≤35 mg/dL; hsCRP (≤3 mg/L and >3 mg/L) and by gender; hsCRP (≤2 mg/L and >2 mg/L) and by gender; Apo B (by tertile); non-HDL-C (by tertile); baseline hemoglobin A1c (Hb1c) value (<6.5%, ≥6.5%); baseline PAD; and baseline TG levels ≥150 mg/dL with high-density lipoprotein cholesterol (HDL-C) levels ≤40 mg/dL for males and ≤50 mg/dL for females.
A Cox proportional hazard (PH) model as mentioned above but additionally with baseline TG as a covariate were fitted to the data at each interim. Diagnostic plots for the PH assumption were evaluated. The consistency of the treatment effects in subgroups was assessed for the primary and key secondary efficacy endpoints. For each subgroup variable, a Cox PH model with terms for treatment, stratification factors (with the exception of those subgroup variables related to the stratification factors, i.e., CV risk category), subgroup, and treatment-by-subgroup interaction were performed. The main treatment effect was tested with this model. P-values for testing the interaction terms <0.15 were considered significant. Results were presented in a Forest plot.
Subgroup analyses of the primary and key secondary endpoints were performed as described for the primary endpoint. For each subgroup, Kaplan-Meier estimates, the log-rank test stratified by stratification factors used at randomization (except where the subgroup was a stratification factor), and HRs and CIs from the Cox proportional hazards model as specified for the primary efficacy endpoint, were summarized by treatment group. All subgroup analyses were conducted for the ITT, mITT and PP populations.
Of note regarding the following subgroup analyses, per study design, subgroup analyses are underpowered to detect statistically significant results within each individual subgroup, particularly when a subgroup represents less than 50% of the enrolled population, and when a subgroup has low event rates. […]

[1] = Overall (Males and Females), TG Lowest Tertile (≥81.25 to ≤190 mg/dL)
[2] = Overall (Males and Females), TG Middle Tertile (>190 to ≤250 mg/dL)
[3] = RLP-C (Derived) Highest Tertile (>34.30 to ≤105.86 mg/dL)
[4] = RLP-C (Derived) Lowest Tertile (≥11.89 to ≤28.09 mg/dL)
[5] = RLP-C (Derived) Middle Tertile (>28.09 to ≤34.30 mg/dL)
[6] = TG Lower Half (≥81.25 and ≤216 mg/dL)
[7] = TG Upper Half (>216 and ≤1401 mg/dL)
[8] = above or at the median baseline TG (>216 mg/dL)
[9] = baseline TG <150 mg/dL and HDL-C >40 mg/dL (males) or >50 mg/dL (females)
[10] = baseline TG ≥150 mg/dL and HDL-C ≤40 mg/dL (males) or ≤50 mg/dL (females)
[11] = below the median baseline TG (≥81.25 and ≤216 mg/dL)
[12] = females, middle tertile baseline TG (>186 to ≤241.5 mg/dL)
[13] = highest tertile baseline HDL-C (>43.5 to ≤107.5 mg/dL)
[14] = highest tertile baseline RLP-C (>34.30 to ≤105.86 mg/dL)
[15] = highest tertile baseline TG (>250 to ≤401 mg/dL)
[16] = highest tertile baseline TG and lowest tertile baseline HDL-C
[17] = history of peripheral artery disease
[18] = lowest tertile baseline HDL-C (≥17 to ≤36.5 mg/dL)
[19] = lowest tertile baseline RLP-C (≥11.89 to ≤28.09 mg/dL)
[20] = lowest tertile baseline TG (≥81.25 to ≤190 mg/dL)
[21] = middle tertile baseline HDL-C (>36.5 to ≤43.5 mg/dL)
[22] = middle tertile baseline RLP-C (>28.09 to ≤34.30 mg/dL)
[23] = middle tertile baseline TG (>190 to ≤250 mg/dL)
[24] = not in the highest tertile baseline TG and lowest tertile baseline HDL-C
[25] = primary prevention subgroup (CV risk category 2)
[26] = secondary prevention subgroup (CV risk category 1)
[27] = without atherogenic dyslipidemia
[28] = without history of peripheral artery disease

With `CC/C=C\C/C=C\C/C=C\C/C=C\C/C=C\CCCC(=O)OCC` [AMR101, eicosapentaenoic acid ethyl ester] the “Primary endpoint, patients with event (%)” value (“Primary endpoint … (%)” below) [1] was 16.9%, the “Time to primary endpoint, HR (95% CI) AMR101/Placebo” value (“Time … (95% CI) AMR101/Placebo” below) [1] was 0.789 and the “Primary endpoint … (%)” value [2] was 18.0%. The “Time … (95% CI) AMR101/Placebo” value [2] was 0.804, the “Primary endpoint … (%)” value (PAD History - No) was 16.3% and the “Time … (95% CI) AMR101/Placebo” value (PAD History - No) was 0.744. The “Primary endpoint … (%)” value (PAD History - Yes) was 26.6%, the “Time … (95% CI) AMR101/Placebo” value (PAD History - Yes) was 0.803 and the “Primary endpoint … (%)” value [3] was 17.8%. For the same compound, the “Time … (95% CI) AMR101/Placebo” value [3] was 0.715, the “Primary endpoint … (%)” value [4] was 17.1% and the “Time … (95% CI) AMR101/Placebo” value [4] was 0.806. For the same compound, the “Primary endpoint … (%)” value [5] was 16.8%, the “Time … (95% CI) AMR101/Placebo” value [5] was 0.750 and the “Primary endpoint … (%)” value [6] was 17.3%. The “Time … (95% CI) AMR101/Placebo” value [6] was 0.803, the “Primary endpoint … (%)” value [7] was 17.2% and the “Time … (95% CI) AMR101/Placebo” value [7] was 0.709. The “Primary endpoint event, patients” value (US patients) was 18.2%, the “Primary endpoint, HR” value (US patients) was 0.687 and the “Primary endpoint event, patients” value [8] was 17.2%. For the same compound, the “Primary endpoint, HR” value [8] was 0.709, the “Primary endpoint event, patients” value (atherogenic dyslipidemia (baseline TG ≥200 mg/dL and HDL-C ≤35 mg/dL)) was 18.1% and the “Primary endpoint event, patients” value (baseline HbA1c <6.5%) was 16.5%. The “Primary endpoint, HR” value (baseline HbA1c <6.5%) was 0.793, the “Primary endpoint event, patients” value (baseline HbA1c ≥6.5%) was 18.1% and the “Primary endpoint, HR” value (baseline HbA1c ≥6.5%) was 0.701. The “Primary endpoint event, patients” value [9] was 18.2%, the “Primary endpoint, HR” value [9] was 0.842 and the “Primary endpoint event, patients” value [10] was 16.5%. The “Primary endpoint, HR” value [10] was 0.691, the “Primary endpoint event, patients” value (baseline hsCRP >2 mg/L) was 19.2% and the “Primary endpoint, HR” value (baseline hsCRP >2 mg/L) was 0.813. For the same compound, the “Primary endpoint event, patients” value (baseline hsCRP ≤2 mg/L) was 15.0%, the “Primary endpoint, HR” value (baseline hsCRP ≤2 mg/L) was 0.680 and the “Primary endpoint event, patients” value [11] was 17.3%. The “Primary endpoint, HR” value [11] was 0.803, the “Primary endpoint event, patients” value [12] was 15.1% and the “Primary endpoint, HR” value [12] was 1.077. For the same compound, the “Primary endpoint event, patients” value [13] was 15.9%, the “Primary endpoint, HR” value [13] was 0.812 and the “Primary endpoint event, patients” value [14] was 17.8%. The “Primary endpoint, HR” value [14] was 0.715, the “Primary endpoint event, patients” value [15] was 16.9% and the “Primary endpoint, HR” value [15] was 0.675. For the same compound, the “Primary endpoint event, patients” value [16] was 19.1%, the “Primary endpoint, HR” value [16] was 0.670 and the “Primary endpoint event, patients” value [17] was 26.6%. The “Primary endpoint, HR” value [17] was 0.803, the “Primary endpoint event, patients” value [18] was 18.1% and the “Primary endpoint, HR” value [18] was 0.667. For the same compound, the “Primary endpoint event, patients” value [19] was 17.1%, the “Primary endpoint, HR” value [19] was 0.806 and the “Primary endpoint event, patients” value [20] was 16.9%. For the same compound, the “Primary endpoint, HR” value [20] was 0.789, the “Primary endpoint event, patients” value [21] was 17.6% and the “Primary endpoint, HR” value [21] was 0.800. The “Primary endpoint event, patients” value [22] was 16.8%, the “Primary endpoint, HR” value [22] was 0.750 and the “Primary endpoint event, patients” value [23] was 18.0%. For the same compound, the “Primary endpoint, HR” value [23] was 0.804, the “Primary endpoint event, patients” value (non-US patients) was 16.7% and the “Primary endpoint, HR” value (non-US patients) was 0.803. The “Key secondary endpoint event, patients” value (non-white patients) was 10.3%, the “Key secondary endpoint, HR” value (non-white patients) was 0.554 and the “Primary endpoint event, patients” value [24] was 16.3%. For the same compound, the “Primary endpoint, HR” value [24] was 0.679, the “Key secondary endpoint, point estimate of the HR” value (patients on statins of low intensity at baseline) was 1.200 and the “Primary endpoint event, patients” value [25] was 12.2%. For the same compound, the “Primary endpoint, HR” value [25] was 0.876, the “Primary endpoint event, patients” value [26] was 19.3% and the “Primary endpoint, HR” value [26] was 0.726. The “Key secondary endpoint event, patients” value (white patients) was 11.3%, the “Key secondary endpoint, HR” value (white patients) was 0.758 and the “Primary endpoint event, patients” value [27] was 17.0%. For the same compound, the “Primary endpoint, HR” value [27] was 0.791, the “Primary endpoint event, patients” value [28] was 16.3% and the “Primary endpoint, HR” value [28] was 0.744. For the same compound, the “Key secondary endpoint event, patients” value (≥65 years subgroup) was 13.9%, the “Key secondary endpoint, HR” value (≥65 years subgroup) was 0.824 and the “Primary endpoint event, patients” value (≥65 years subgroup) was 20.6%. The “Primary endpoint, HR” value (≥65 years subgroup) was 0.873.
